From patent publication US20260027068A1, “METHODS OF ADM[…]-KETAMINE” (Perception Neuroscience, Inc., priority 2022, published 2026)

Experiment: Temperature (vital signs)
Experimental: The Investigational Medicinal Product (IMP) R(−)-ketamine hydrochloride in sterile water for intravenous injection was investigated as an […] treatment of TRD. The International Union of Pure and Applied Chemistry (IUPAC) name is of the IMP is (2R)-2-(2-chlorophenyl)-2-(methylamino)cyclohexan-1-one. Subjects received the solution at either 30 mg or 60 mg dose, or a placebo. The IMP or placebo was administered on Day 1 as a single IV infusion via an electronic infusion pump over 40 minutes. The duration of study participation for each subject was up to 29 days including a screening period, a 3-day in-clinic visit, and 2 follow-up visits. 101 subjects were enrolled in approximately 20 study centers in the EU and the US.
Tympanic or temporal temperature, heart rate, blood pressure (SBP/DBP), respiratory rate, and SpO2 were assessed. Blood pressure and pulse measurements will be assessed with a completely automated device while the subject is supine or semi-supine. Manual techniques will be used only if an automated device is not available. Blood pressure and pulse measurements should be preceded by at least 5 minutes of rest for the subject in a quiet setting without distractions (e.g., television, cell phones). An abnormal blood pressure value at screening may be repeated once after 5 minutes of relaxation to determine the subject's eligibility. Blood pressure was recorded using the same arm and position (supine or semi-supine) throughout the study, where possible. Vital signs (to be taken before blood collection for laboratory tests) consisted of 1 pulse and 3 blood pressure measurements (3 consecutive blood pressure readings will be recorded at intervals of at least 1 minute). The average of the 3 blood pressure readings was recorded in the CRF. A pulse oximeter was used to measure peripheral capillary oxygen saturation (SpO2) continuously from pre-dose until 4-hours post-dose. A pulse oximeter was clipped onto the finger or foot of the subject, and light will be sent through the finger or foot and measured on the other side.
In these tables, baseline value is defined as the last non-missing value prior to study drug administration.

## CN[C@@]1(c2ccccc2Cl)CCCCC1=O.Cl [R(−)-ketamine, (2R)-2-(2-chlorophenyl)-2-(methylamino)cyclohexan-1-one]
30 mg, Day 1, 15 minutes
  Temperature, Max: 37.2 °C
  Temperature, Mean: 36.57 °C
  Temperature, Median: 36.50 °C
  Temperature, Min: 36.4 °C
30 mg, Day 1, 40 minutes
  Temperature, Max: 37.2 °C
  Temperature, Mean: 36.58 °C
  Temperature, Median: 36.60 °C
  Temperature, Min: 36.2 °C
30 mg, Day 1, 60 minutes
  Temperature, Max: 37.2 °C
  Temperature, Mean: 36.57 °C
  Temperature, Median: 36.50 °C
  Temperature, Min: 36.3 °C
30 mg, Day 1, 2 hours
  Temperature, Max: 37.2 °C
  Temperature, Mean: 36.62 °C
  Temperature, Median: 36.60 °C
  Temperature, Min: 36.4 °C
30 mg, Day 1, 4 hours
  Temperature, Max: 37.1 °C
  Temperature, Mean: 36.57 °C
  Temperature, Median: 36.60 °C
  Temperature, Min: 36.3 °C
30 mg, Day 1, 6 hours
  Temperature, Max: 37.2 °C
  Temperature, Mean: 36.63 °C
  Temperature, Median: 36.60 °C
  Temperature, Min: 36.3 °C
30 mg, Day 2 - Discharge
  Temperature, Max: 37.1 °C
  Temperature, Mean: 36.59 °C
  Temperature, Median: 36.60 °C
  Temperature, Min: 35.9 °C
30 mg, Day 8
  Temperature, Max: 36.8 °C
  Temperature, Mean: 36.50 °C
  Temperature, Median: 36.50 °C
  Temperature, Min: 36.1 °C
30 mg, Day 15
  Temperature, Max: 37.1 °C
  Temperature, Mean: 36.60 °C
  Temperature, Median: 36.60 °C
  Temperature, Min: 36.2 °C
30 mg, to Day 1, 15 minutes
  Temperature, Change from Baseline, Max: 0.4 °C
  Temperature, Change from Baseline, Mean: 0.05 °C
  Temperature, Change from Baseline, Median: 0.10 °C
  Temperature, Change from Baseline, Min: −0.3 °C
30 mg, to Day 1, 40 minutes
  Temperature, Change from Baseline, Max: 0.5 °C
  Temperature, Change from Baseline, Mean: 0.05 °C
  Temperature, Change from Baseline, Median: 0.00 °C
  Temperature, Change from Baseline, Min: −0.2 °C
30 mg, to Day 1, 60 minutes
  Temperature, Change from Baseline, Max: 0.5 °C
  Temperature, Change from Baseline, Mean: 0.05 °C
  Temperature, Change from Baseline, Median: 0.00 °C
  Temperature, Change from Baseline, Min: −0.3 °C
30 mg, to Day 1, 2 hours
  Temperature, Change from Baseline, Max: 0.7 °C
  Temperature, Change from Baseline, Mean: 0.08 °C
  Temperature, Change from Baseline, Median: 0.10 °C
  Temperature, Change from Baseline, Min: −0.2 °C
30 mg, to Day 1, 4 hours
  Temperature, Change from Baseline, Max: 0.5 °C
  Temperature, Change from Baseline, Mean: 0.03 °C
  Temperature, Change from Baseline, Median: 0.00 °C
  Temperature, Change from Baseline, Min: −0.4 °C
30 mg, to Day 1, 6 hours
  Temperature, Change from Baseline, Max: 0.9 °C
  Temperature, Change from Baseline, Mean: 0.09 °C
  Temperature, Change from Baseline, Median: 0.10 °C
  Temperature, Change from Baseline, Min: −0.4 °C
30 mg, to Day 2 - Discharge
  Temperature, Change from Baseline, Max: 0.5 °C
  Temperature, Change from Baseline, Mean: 0.05 °C
  Temperature, Change from Baseline, Median: 0.00 °C
  Temperature, Change from Baseline, Min: −0.3 °C
30 mg, to Day 8
  Temperature, Change from Baseline, Max: 0.6 °C
  Temperature, Change from Baseline, Mean: −0.03 °C
  Temperature, Change from Baseline, Median: 0.00 °C
  Temperature, Change from Baseline, Min: −0.7 °C
30 mg, to Day 15
  Temperature, Change from Baseline, Max: 0.9 °C
  Temperature, Change from Baseline, Mean: 0.05 °C
  Temperature, Change from Baseline, Median: 0.00 °C
  Temperature, Change from Baseline, Min: −0.4 °C
60 mg, Day 1, 15 minutes
  Temperature, Max: 36.9 °C
  Temperature, Mean: 36.58 °C
  Temperature, Median: 36.50 °C
  Temperature, Min: 36.4 °C
60 mg, Day 1, 40 minutes
  Temperature, Max: 36.8 °C
  Temperature, Mean: 36.58 °C
  Temperature, Median: 36.60 °C
  Temperature, Min: 36.3 °C
60 mg, Day 1, 60 minutes
  Temperature, Max: 36.8 °C
  Temperature, Mean: 36.55 °C
  Temperature, Median: 36.50 °C
  Temperature, Min: 36.4 °C
60 mg, Day 1, 2 hours
  Temperature, Max: 37.0 °C
  Temperature, Mean: 36.60 °C
  Temperature, Median: 36.60 °C
  Temperature, Min: 36.2 °C
60 mg, Day 1, 4 hours
  Temperature, Max: 37.0 °C
  Temperature, Mean: 36.60 °C
  Temperature, Median: 36.60 °C
  Temperature, Min: 36.3 °C
60 mg, Day 1, 6 hours
  Temperature, Max: 37.1 °C
  Temperature, Mean: 36.61 °C
  Temperature, Median: 36.60 °C
  Temperature, Min: 36.1 °C
60 mg, Day 2 - Discharge
  Temperature, Max: 36.9 °C
  Temperature, Mean: 36.60 °C
  Temperature, Median: 36.60 °C
  Temperature, Min: 36.1 °C
60 mg, Day 8
  Temperature, Max: 37.2 °C
  Temperature, Mean: 36.55 °C
  Temperature, Median: 36.60 °C
  Temperature, Min: 35.8 °C
60 mg, Day 15
  Temperature, Max: 37.0 °C
  Temperature, Mean: 36.62 °C
  Temperature, Median: 36.60 °C
  Temperature, Min: 36.3 °C
60 mg, to Day 1, 15 minutes
  Temperature, Change from Baseline, Max: 0.3 °C
  Temperature, Change from Baseline, Mean: 0.04 °C
  Temperature, Change from Baseline, Median: 0.00 °C
  Temperature, Change from Baseline, Min: −0.2 °C
60 mg, to Day 1, 40 minutes
  Temperature, Change from Baseline, Max: 0.7 °C
  Temperature, Change from Baseline, Mean: 0.05 °C
  Temperature, Change from Baseline, Median: 0.00 °C
  Temperature, Change from Baseline, Min: −0.4 °C
60 mg, to Day 1, 60 minutes
  Temperature, Change from Baseline, Max: 0.3 °C
  Temperature, Change from Baseline, Mean: 0.01 °C
  Temperature, Change from Baseline, Median: 0.00 °C
  Temperature, Change from Baseline, Min: −0.3 °C
60 mg, to Day 1, 2 hours
  Temperature, Change from Baseline, Max: 0.8 °C
  Temperature, Change from Baseline, Mean: 0.07 °C
  Temperature, Change from Baseline, Median: 0.00 °C
  Temperature, Change from Baseline, Min: −0.5 °C
60 mg, to Day 1, 4 hours
  Temperature, Change from Baseline, Max: 0.9 °C
  Temperature, Change from Baseline, Mean: 0.07 °C
  Temperature, Change from Baseline, Median: 0.00 °C
  Temperature, Change from Baseline, Min: −0.2 °C
60 mg, to Day 1, 6 hours
  Temperature, Change from Baseline, Max: 1.0 °C
  Temperature, Change from Baseline, Mean: 0.07 °C
  Temperature, Change from Baseline, Median: 0.00 °C
  Temperature, Change from Baseline, Min: −0.4 °C
60 mg, to Day 2 - Discharge
  Temperature, Change from Baseline, Max: 0.6 °C
  Temperature, Change from Baseline, Mean: 0.07 °C
  Temperature, Change from Baseline, Median: 0.10 °C
  Temperature, Change from Baseline, Min: −0.7 °C
60 mg, to Day 8
  Temperature, Change from Baseline, Max: 1.2 °C
  Temperature, Change from Baseline, Mean: 0.01 °C
  Temperature, Change from Baseline, Median: 0.00 °C
  Temperature, Change from Baseline, Min: −0.9 °C
60 mg, to Day 15
  Temperature, Change from Baseline, Max: 1.2 °C
  Temperature, Change from Baseline, Mean: 0.08 °C
  Temperature, Change from Baseline, Median: 0.00 °C
  Temperature, Change from Baseline, Min: −0.5 °C
